Here are results for 8 molecules from article PMC7332481, “Ecotoxicity screening evaluation of selected pharmaceuticals and their transformation products towards various organisms” (Environmental Science and Pollution Research International, 2020).

The EC50 is the midpoint of the concentration-response curve. In general, inhibition refers to how much of the control response was suppressed.

≈ marks a conversion by molar mass, not a printed value. Like-named read-outs stand apart in the source and are kept apart here. Some results are limits rather than exact numbers.

Data set [1] relates to Daphnia magna. The data set can be described thus: D. magna acute immobilization test. Type of data set: in vivo. The following applies: Daphnia magna; for EC50: immobilization, 48 h, read-out: EC50 D. magna (with confidence interval 2.5–97.5%); for mortality at 100 µg/mL: concentration 100 mg L^−1; for mortality at 60 µg/mL: concentration 60 mg L^−1. The procedure: (§1) All tests were carried out in accordance with the OECD or ISO guidelines. In general the experimental part was divided into three main steps: (i) determination of the toxicity of the native forms of pharmaceuticals (their racemic mixtures), (ii) toxicity evaluation of the selected TPs of these pharmaceuticals, and (iii) preliminary toxicity assessment of the enantiomers of selected pharmaceuticals. For each assay, range-finding tests were conducted, in order to determine the range of concentrations for the definitive tests. The main tests were repeated three times in at least two parallel replicates, with a minimum of five concentrations for native forms of the selected pharmaceuticals (including their enantiomers). The exact number of replicates and concentrations tested was included in the description of each test. […] However, TPs were tested in a different manner; first, the tests were carried out at the limit concentration of 100 mg L^−1. […] Such approach was applied in order to observe the relative toxicity of the selected TP and its native form.
(§2) Dose-response curves were fitted using a linear logistic or logistic model (the model giving the best fit was chosen) (https://cran.r-project.org/web/packages/drfit/drfit.pdf). The mathematic formulas applied for this purpose are presented and described in the Supplementary Material. The EC50 values were given since log EC50 is a model parameter in the logistic as well as in linear logistic model.
Five pre-fed test organisms were incubated with the studied compounds diluted in 10 mL of test media in glass test vessels at 20 °C (± 1 °C) in darkness for 48 h. Each test consisted of a control and five different concentrations of the studied compound in four parallel replicates. In order to achieve a full dose-response relationship, the concentration series covered the range of 0–100% immobilization. The number of immobilized or dead organisms was checked after 24 and 48 h. The negative effect of exposure to the tested compounds was expressed by the number of immobilized organisms compared to the controls.

For data set [2], the system named is Raphidocelis subcapitata. The experiment in a line: R. subcapitata reproduction (growth) inhibition test. The format is cell-based. The following applies: for EC50: 72 h, growth inhibition by cell counts, read-out: EC50 R. subcapitata (with confidence interval 2.5–97.5%). As to the method:
as §1, §2
Test organisms were provided from Algal Culture Collection (Universität Göttingen, Germany). […] The light-dark cycle was different from the OECD guidelines, and it was introduced to imitate natural growth conditions. In order to ensure that the algae are in the exponential growth phase when used to inoculate the test solutions, the stock culture was diluted three times a week. The test was carried out in 25 mL suspension cell culture flasks (Nunc) (working volume 10 mL). All operations were performed under sterile conditions. The initial cell concentration was 5 × 10^4 cells mL^−1. Eight different concentrations of every compound in three replicates and a minimum of six controls were used in each test. […] The test flasks were incubated on a shaker with a speed of approx. 75 rpm at the temperature and light conditions described above. Growth inhibition was calculated using the cell counts of the treated samples in relation to the untreated controls after 72 h of exposure. The cells were counted with the use of CASY TT Cell counter & analyzer.

The test system of data set [3] is algae. The following applies: cited from earlier work.
Data set [4] concerns Vibrio fischeri. The experiment in a line: microbe, parasite or virus in culture. The format is cell-based. The settings on record: Aliivibrio fischeri; for EC50: 0.5 h, read-out: EC50 V. fischeri (with confidence interval 2.5–97.5%); for inhibition at 100 µg/mL: concentration 100 mg L^−1. As to the method: (§3) Stock solutions and dilutions were prepared in 2% NaCl in 0.02 M phosphate buffer, pH 7. The freeze-dried bacteria were rehydrated prior to testing in a reactivation solution. Culture suspensions and diluted samples were pre-incubated at 15 °C for 15 min. After the initial luminescence was measured, 0.5 mL of the culture suspension was mixed with the same volume of a diluted sample. The final bioluminescence was measured after 30 min. Incubation was kept at 15 °C (LUMIStox 300 meter, Dr. Lange GmbH, Berlin, Germany). The relative toxicity of the samples was expressed as a percentage of luminescence inhibition compared to the controls.
as §3, with “m,” for “meter,”

The subject of data set [5] is Arthrobacter globiformis. The data set can be described thus: A. globiformis dehydrogenase inhibition test (version without soil). The settings on record: for EC50: read-out: EC50 A. globiformis; for inhibition at 100 µg/mL: read-out: inhibition of bacterial growth (A. globiformis). As to the method: as §1
The test strain was obtained from the German Collection of Microorganisms (DSMZ). A version of the test without soil was performed. Bacteria was grown in a sterile medium containing 10 g L^−1 peptone from casein, 5 g L^−1 yeast extract, 5 g L^−1 glucose, and 5 g L^−1 NaCl. For the test, the medium was diluted in a ratio of 1:3 in water. The inoculum was the bacteria in a log-growth phase. Cell density was adjusted to 1 × 10^8 cells mL^−1, which corresponds to an optical density (OD600nm) of 0.4. The test was performed in 24-well microplates. Each well contained 1 mL of solution of the tested compound in water and 1 mL of bacterial inoculum. Next, the plates were incubated for 2 h at 30 °C on a horizontal shaker with a speed of 100 rpm. To each well, a portion of 0.6 mL of the redox active dye resazurine (45 mg L^−1) dissolved in buffer was added. The microplates were further incubated for 1 h (30 °C, 100 rpm). To stop the reduction process, the plates were centrifuged at 3600g for 10 min. Aliquots (300 μl) of supernatant from each well were immediately transferred to the wells of a 96-well microplate in triplicates. Finally, the dehydrogenase activity was determined by measuring the formation of resorufin from resazurine using a fluorimeter ([…]). Dehydrogenase inhibition was calculated using Eq. 1.
where FBTS is the measured fluorescence of the blank (medium) with the tested substance, FTS is the measured fluorescence of the sample, FBNC is the measured fluorescence of the blank, and FNC is the measured fluorescence of the negative control (with bacteria).

Data set [6] deals with duckweed. The following applies: ref Cleuvers 2003; cited from earlier work.
Data set [7] has as its system aquatic organisms.
The subject of data set [8] is Lemna minor. The experiment in a line: L. minor growth inhibition test. The settings on record: Lemna minor; for EC50: 168 h, read-out: EC50 L. minor (with confidence interval 2.5–97.5%), growth rate inhibition by frond area, 7 days. The procedure: as §1, §2
One week before the assay, the inoculum cultures were prepared; eight healthy plants were placed into a new portion of the medium. Two days before the test, the plants were transferred to a fresh medium, in order to supplement nutrients and to eliminate plant metabolites. The experiments were performed in six-well plates under the conditions described above. The pH value of the Steinberg medium and all solutions was 5.5 (± 0.5). Every test included six different concentrations of compound and six controls in three replicates. The test started with one plant consisting of three fronds and the measured endpoint was the inhibition of growth rate determined by comparing the frond area (mm^2) for the treated plants and untreated controls.

Data set [9] relates to L. minor. The following applies: cited from earlier work.
Data set [10] relates to V. fischeri. The settings on record: cited from earlier work.
[11] abbreviates: luminescence inhibition, 30 min, 15 °C.
Setting [12] is: for the organisms named in the sentence.
The mark [13] stands for this setting: Raphidocelis subcapitata, concentration 100 mg L^−1, read-out: Growth inhibition of R. subcapitata.
Setting [14] is: read-out: Luminescence inhibition.
[15] abbreviates: read-out: Growth inhibition of L. minor.
Where [16] appears, read: concentration 10 mg L^−1, read-out: Luminescence inhibition.
Where [17] appears, read: ref US Food and Drug Administration 1996.

On to `COc1ccc2cc([C@H](C)C(=O)O)ccc2c1` [NAP, Naproxen], for which the mortality at 70 µg/mL in data set [1] (concentration 70 mg L^−1, read-out: Immobilization) is 32%. Also, the EC50 in data set [1] is 74.4 µg/mL (≈ 323 µM); in [2] (Raphidocelis subcapitata) it was 27.1 µg/mL (≈ 118 µM); in data set [4] (setting [11]), 25.2 µg/mL (≈ 109 µM); in data set [5] it was more than 100 µg/mL; in data set [8], 20.7 µg/mL (≈ 89.9 µM). Also, the “EC50, 72h algae” value in data set [3] (72 h, ref Minguez et al. 2016) is 44.40 µg/mL (≈ 193 µM). Further, in data set [3] (96 h, ref Isidori et al. 2005b), the “EC50, 96h algae” value was 31.82 µg/mL (≈ 138 µM). Further, the inhibition at 25 µg/mL in data set [4] (concentration 25 mg L^−1, read-out: Luminescence inhibition) worked out at 51%. In addition, the EC50 duckweed in [6] is 24 µg/mL (≈ 104 µM). Moreover, the “classification on the basis of EC50 values (EC 93/67/EEC)” value (shortened to “classification on the basis”) in data set [7] (setting [12]) was “harmful”.

In the case of `COCCc1ccc(OCC(O)CNC(C)C)cc1` (centres unmarked) [MET, Metoprolol], the mortality at 100 µg/mL in [1] worked out at 4%. Also, the EC50 was more than 100 µg/mL in data set [1]; 35.6 µg/mL (≈ 133 µM) in data set [2] (Raphidocelis subcapitata); more than 100 µg/mL in [4] (setting [11]); more than 100 µg/mL in data set [5]; more than 100 µg/mL in data set [8]. For the same molecule, the inhibition at 100 µg/mL in [2] (setting [13]) came to 90%; in data set [4] (setting [14]), 3%; in data set [8] (setting [15]), 5%.

`Cc1cc(NS(=O)(=O)c2ccc(N)cc2)no1` [SMZ, Sulfamethoxazole]: the mortality at 40 µg/mL in [1] (concentration 40 mg L^−1, read-out: Immobilization) amounted to 48%. In addition, the figures for the half-maximal effective concentration (EC50) in data set [1], in data set [4] (setting [11]) and in [5] were 42.7 µg/mL (≈ 169 µM), 51.8 µg/mL (≈ 204 µM) and more than 100 µg/mL, respectively. Moreover, the inhibition at 5 µg/mL in data set [2] (Raphidocelis subcapitata, concentration 5 mg L^−1, read-out: Growth inhibition of R. subcapitata) was 43%. Further, in data set [4] (concentration 50 mg L^−1, read-out: Luminescence inhibition), the inhibition at 50 µg/mL was 46%. For the same molecule, the “classification on the basis” value in [7] (setting [12]) is given as “toxic to aquatic organisms (1–10 mg L^−1 are “toxic to aquatic organisms”)”. Also, the inhibition at 3 µg/mL in data set [8] (setting [15]) came to 49%.

Molecule `O=C(O)Cc1ccccc1Nc1c(Cl)cc(O)cc1Cl` [4-OH-DIC, 4☒Hydroxydiclofenac] gave a mortality at 60 µg/mL in [1] of 8%. The molecule also gave an inhibition at 50 µg/mL in [2] (Raphidocelis subcapitata, concentration 50 mg L^−1) of 45%. Further, the inhibition at 10 µg/mL in data set [4] (setting [16]) was 38%. Moreover, the inhibition at 100 µg/mL in data set [5] is 14%. Further, the inhibition at 15 µg/mL in [8] (setting [15]) is 0%.

With `O=C(O)Cc1ccccc1Nc1c(Cl)cccc1Cl` [DIC, Diclofenac], the “EC50 L. minor” value in data set [9] (ref Quinn et al. (2011)) is 47.6 µg/mL (≈ 161 µM). In data set [1], this molecule displayed a mortality at 60 µg/mL of 50%. The EC50 in data set [1] was 59.1 µg/mL (≈ 200 µM); in [4] it was 11.6 µg/mL (≈ 39.2 µM); in data set [5], more than 100 µg/mL; in data set [8], 16.5 µg/mL (≈ 55.8 µM). The inhibition at 10 µg/mL in data set [4] (setting [14]) amounted to 45%. Also, in data set [5], the inhibition at 100 µg/mL is 30%. The “classification on the basis” value in data set [7] is recorded as “harmful”. Besides, the inhibition at 15 µg/mL in data set [8] (setting [15]) stood at 33%.

As for `NC(=O)N1c2ccccc2C=Cc2ccccc21` [CRB, Carbamazepine], the mortality at 100 µg/mL in [1] stood at 24%. Besides, the EC50 in [1] was more than 100 µg/mL; in data set [2] (Raphidocelis subcapitata), more than 100 µg/mL; in data set [4] (setting [11]) it was more than 100 µg/mL; in data set [5], more than 100 µg/mL; in data set [8] it was 50.2 µg/mL (≈ 212 µM). In addition, the inhibition at 100 µg/mL was 49% in [2] (setting [13]) and 42% in data set [4] (setting [14]). Also, the “Growth inhibition of R. subcapitata” value in data set [2] (concentration 100 mg L^−1) worked out at 48%. Also, the inhibition at 50 µg/mL in [8] (setting [15]) turned out to be 49%.

`CC(C)Cc1ccc(C(C)C(=O)O)cc1` (centres unmarked) [IBU, Ibuprofen] displayed a mortality at 50 µg/mL in [1] (concentration 50 mg L^−1) of 52%. The EC50 in [1] is 50.1 µg/mL (≈ 243 µM); in data set [2] (Raphidocelis subcapitata), 93.3 µg/mL (≈ 452 µM); in [5] it was more than 100 µg/mL; in data set [8], 13.2 µg/mL (≈ 64.2 µM). Also, in [2] (setting [13]), the inhibition at 100 µg/mL turned out to be 52%. Besides, the inhibition at 10 µg/mL in data set [4] (setting [16]) was 42%. For the same molecule, the inhibition at 15 µg/mL in [8] (setting [15]) is 54%.

`COc1cccc(C2(O)CCCCC2CN(C)C)c1` (centres unmarked) [TRA, Tramadol]: the “toxicity to L. minor” value in data set [9] (setting [17]) was “not toxic”. In addition, the mortality at 70 µg/mL in data set [1] (read-out: Immobilization) turned out to be 44%. In addition, the “toxic effect towards V. fischeri” value in [10] (at the concentration of 100 mg L^−1, ref Romanucci et al. (2019)) is recorded as “did not observed any toxic effect”. Besides, the “toxicity to V. fischeri” value in [10] (setting [17]) is “not toxic”.
